{"source": "paper PMC4791597", "about": "(Scientific Reports, 2016)", "target": "T1, PrP^C (cellular prion protein) (Mus musculus, UniProt P04925)", "T1 construct": "gene Prnp", "T1 sequence (P04925 23-230 limits assumed)": "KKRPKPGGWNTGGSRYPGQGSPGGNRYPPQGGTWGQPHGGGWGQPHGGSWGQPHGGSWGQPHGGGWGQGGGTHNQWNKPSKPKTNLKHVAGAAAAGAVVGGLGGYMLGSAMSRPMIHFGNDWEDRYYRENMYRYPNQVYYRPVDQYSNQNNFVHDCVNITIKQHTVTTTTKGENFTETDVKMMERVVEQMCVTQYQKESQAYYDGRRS", "assay_type": "binding"}
{"compound": "C[n+]1ccc(C2=C3C=CC(=N3)C(c3cc[n+](C)cc3)=c3ccc4[n]3[Fe+][n]3c2ccc3C(c2cc[n+](C)cc2)=C2C=CC(=N2)C=4c2cc[n+](C)cc2)cc1", "note": "[Fe(III)-TMPyP]", "values": [{"measurement": "Kd", "result": 1210, "unit": "nM"}]}
